# Experimental data: patent US20240158446A1, “CYCLIC COMPOUND HAVING SELECTIVE INHIBITORY ACTION ON KRAS OVER HRAS AND NRAS” (CHUGAI SEIYAKU KABUSHIKI KAISHA, priority 2021, published 2024)
# *1 amine or outer side, *2 acyl side, *3 side chain or, on linkers, in order; H or OH if unused. Where a SMILES comes first, the peptide text is derived from it. Bridges are numbered along the chain shown (N, C = ends). [ ]: non-standard residue; d: D form. The star is where a group is joined. hPhe(3-Cl-4-CF3) = N[C@@H](CCc1ccc(C(F)(F)F)c(Cl)c1)C(=O)O; NPrPhe(4-CF3) = CCCN[C@@H](Cc1ccc(C(F)(F)F)cc1)C(=O)O; X18 = Cc1ccc(C[C@@H](C(=O)[*:2])N(CC(C)C)[*:1])cc1; X21 = Cc1ccc(C[C@@H](C(=O)[*:2])N(CC2CC2)[*:1])cc1; X46 = CCCCN([C@@H](Cc1ccc(C)cc1)C(=O)[*:2])[*:1]; NPrPhe(4-Me) = CCCN[C@@H](Cc1ccc(C)cc1)C(=O)O; NMePhe(4-Me) = CN[C@@H](Cc1ccc(C)cc1)C(=O)O; X3 = CCCN([C@H](C(=O)[*:2])C1CCCC1)[*:1]; NMeGly(cPent) = CN[C@H](C(=O)O)C1CCCC1; NMeD = CN[C@@H](CC(=O)O)C(=O)O; NMeL = CN[C@@H](CC(C)C)C(=O)O; Morpholide = C1CN(*)CCO1; NMeA = CN[C@@H](C)C(=O)O; NMeAib = CNC(C)(C)C(=O)O; Nle = CCCC[C@H](N)C(=O)O; Piperidide = C1CCN(*)CC1; Ac5c = NC1(C(=O)O)CCCC1; Aze = O=C(O)[C@@H]1CCN1; NEtG = CCNCC(=O)O; Sar = CNCC(=O)O
# Key:
# [1] = target: GDP-bound KRAS wild-type protein (Homo sapiens, UniProt P01116); test: Binding to KRAS by surface plasmon resonance (SPR), Single Cycle Kinetics; conditions: SPR Single Cycle Kinetics, GDP-bound KRAS wild-type protein, 1:1 binding model; read-out: KRAS KD
# Sequence of GDP-bound KRAS wild-type protein (P01116 whole entry): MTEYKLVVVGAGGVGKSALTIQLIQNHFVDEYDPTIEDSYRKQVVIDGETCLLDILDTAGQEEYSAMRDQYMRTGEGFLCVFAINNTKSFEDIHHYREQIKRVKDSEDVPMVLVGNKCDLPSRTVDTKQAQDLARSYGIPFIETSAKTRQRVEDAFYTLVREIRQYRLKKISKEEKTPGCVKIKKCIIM
# [2] = target: GDP-bound HRAS wild-type protein (Homo sapiens, UniProt P01112); test: Binding to HRAS by surface plasmon resonance (SPR), Single Cycle Kinetics; conditions: SPR, GDP-bound HRAS wild-type protein vs GDP-bound KRAS wild-type protein
# Sequence of GDP-bound HRAS wild-type protein (P01112 whole entry): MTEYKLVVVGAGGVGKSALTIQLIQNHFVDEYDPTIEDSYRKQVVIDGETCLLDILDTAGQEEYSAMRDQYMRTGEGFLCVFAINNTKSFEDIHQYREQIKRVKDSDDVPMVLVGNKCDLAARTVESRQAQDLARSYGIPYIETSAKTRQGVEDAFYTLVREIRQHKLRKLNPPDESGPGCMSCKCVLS
# [3] = target: GDP-bound NRAS wild-type protein (Homo sapiens, UniProt P01111); test: Binding to NRAS by surface plasmon resonance (SPR), Single Cycle Kinetics; conditions: SPR, GDP-bound NRAS wild-type protein vs GDP-bound KRAS wild-type protein
# Sequence of GDP-bound NRAS wild-type protein (P01111 whole entry): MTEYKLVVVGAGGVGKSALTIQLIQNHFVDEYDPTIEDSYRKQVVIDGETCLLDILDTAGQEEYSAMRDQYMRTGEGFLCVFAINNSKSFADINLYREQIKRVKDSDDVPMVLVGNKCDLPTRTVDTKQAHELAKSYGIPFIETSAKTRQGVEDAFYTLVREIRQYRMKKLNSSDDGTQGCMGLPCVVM
Compound,Kd [1] [nM],HRAS/KRAS (ratio of KD value for HRAS to KD value for KRAS) [2],NRAS/KRAS (ratio of KD value for NRAS to KD value for KRAS) [3]
CCCC[C@@H]1NC(=O)[C@H](CCc2ccc(C(F)(F)F)c(Cl)c2)NC(=O)CN(C)C(=O)[C@H](Cc2ccc(C)cc2)N(C)C(=O)CN(C)C(=O)CN(C)C(=O)[C@H]([C@@H](C)CC)NC(=O)[C@H](CC(C)C)N(C)C(=O)C[C@@H](C(=O)N2CCCCC2)N(C)C(=O)[C@H](CC(C)C)NC(=O)C(C)(C)N(C)C1=O [PP0049] ([NMeL]I[Sar][Sar][NMePhe(4-Me)][Sar][hPhe(3-Cl-4-CF3)][Nle][NMeAib]L[NMeD]-Piperidide; lactam N-11),6.3,C (A compound having a KD ratio of 0.1 or more and less than 3 is denoted as C),C (A compound having a KD ratio of 0.1 or more and less than 3 is denoted as C)
CCCN1C(=O)[C@@H]2CCN2C(=O)[C@H](C)N(C)C(=O)[C@H]([C@@H](C)CC)NC(=O)[C@H](CC(C)C)N(C)C(=O)C[C@@H](C(=O)N2CCOCC2)N(C)C(=O)[C@H](C2CCCC2)N(C)C(=O)C2(CCCC2)NC(=O)[C@@H]2CCCN2C(=O)[C@H](CCc2ccc(C(F)(F)F)c(Cl)c2)NC(=O)CN(C)C(=O)[C@@H]1Cc1ccc(C)cc1 [PP0052] ([NMeL]I[NMeA][Aze][NPrPhe(4-Me)][Sar][hPhe(3-Cl-4-CF3)]P[Ac5c][NMeGly(cPent)][NMeD]-Morpholide; lactam N-11),0.12,B (a compound having 3 or more and less than 10 is denoted as B),C (A compound having a KD ratio of 0.1 or more and less than 3 is denoted as C)
CC[C@H](C)[C@@H]1NC(=O)[C@H](CC(C)C)N(C)C(=O)C[C@@H](C(=O)N2CCOCC2)N(C)C(=O)[C@H](C2CCCC2)N(C)C(=O)C2(CCCC2)NC(=O)[C@@H]2CCCN2C(=O)[C@H](CCc2ccc(C(F)(F)F)c(Cl)c2)NC(=O)CN(C)C(=O)[C@H](Cc2ccc(C)cc2)N(CC(C)C)C(=O)[C@@H]2CCN2C(=O)[C@H](C)N(C)C1=O [PP0056] ([NMeL]I[NMeA][Aze][X18][Sar][hPhe(3-Cl-4-CF3)]P[Ac5c][NMeGly(cPent)][NMeD]-Morpholide; lactam N-11),2.9,B (a compound having 3 or more and less than 10 is denoted as B),C (A compound having a KD ratio of 0.1 or more and less than 3 is denoted as C)
CC[C@H](C)[C@@H]1NC(=O)[C@H](CC(C)C)N(C)C(=O)C[C@@H](C(=O)N2CCOCC2)N(C)C(=O)[C@H](C2CCCC2)N(C)C(=O)C2(CCCC2)NC(=O)[C@@H]2CCCN2C(=O)[C@H](CCc2ccc(C(F)(F)F)c(Cl)c2)NC(=O)CN(C)C(=O)[C@H](Cc2ccc(C)cc2)N(CC2CC2)C(=O)[C@@H]2CCN2C(=O)[C@H](C)N(C)C1=O [PP0057] ([NMeL]I[NMeA][Aze][X21][Sar][hPhe(3-Cl-4-CF3)]P[Ac5c][NMeGly(cPent)][NMeD]-Morpholide; lactam N-11),0.21,B (a compound having 3 or more and less than 10 is denoted as B),C (A compound having a KD ratio of 0.1 or more and less than 3 is denoted as C)
CCCN1C(=O)[C@@H]2CCN2C(=O)[C@H](C)N(C)C(=O)[C@H]([C@@H](C)CC)NC(=O)[C@H](CC(C)C)N(C)C(=O)C[C@@H](C(=O)N2CCOCC2)N(C)C(=O)[C@H](C2CCCC2)N(C)C(=O)C2(CCCC2)NC(=O)[C@@H]2CCCN2C(=O)[C@H](CCc2ccc(C(F)(F)F)c(Cl)c2)NC(=O)CN(CC)C(=O)[C@@H]1Cc1ccc(C)cc1 [PP0058] ([NMeL]I[NMeA][Aze][NPrPhe(4-Me)][NEtG][hPhe(3-Cl-4-CF3)]P[Ac5c][NMeGly(cPent)][NMeD]-Morpholide; lactam N-11),2,C (A compound having a KD ratio of 0.1 or more and less than 3 is denoted as C),C (A compound having a KD ratio of 0.1 or more and less than 3 is denoted as C)
CCCN1C(=O)CN(C)C(=O)CN(C)C(=O)[C@H]([C@@H](C)CC)NC(=O)[C@H](CC(C)C)N(C)C(=O)C[C@@H](C(=O)N2CCOCC2)N(C)C(=O)[C@H](C2CCCC2)N(C)C(=O)C2(CCCC2)NC(=O)[C@@H]2CCCN2C(=O)[C@H](CCc2ccc(C(F)(F)F)c(Cl)c2)NC(=O)CN(C)C(=O)[C@@H]1Cc1ccc(C)cc1 [PP0059] ([NMeL]I[Sar][Sar][NPrPhe(4-Me)][Sar][hPhe(3-Cl-4-CF3)]P[Ac5c][NMeGly(cPent)][NMeD]-Morpholide; lactam N-11),0.15,C (A compound having a KD ratio of 0.1 or more and less than 3 is denoted as C),B (a compound having 3 or more and less than 10 is denoted as B)
CCCN1C(=O)CN(C)C(=O)CN(C)C(=O)[C@H]([C@@H](C)CC)NC(=O)[C@H](CC(C)C)N(C)C(=O)C[C@@H](C(=O)N2CCOCC2)N(C)C(=O)[C@H](C2CCCC2)N(C)C(=O)C2(CCCC2)NC(=O)[C@@H]2CCCN2C(=O)[C@H](CCc2ccc(C(F)(F)F)c(Cl)c2)NC(=O)CN(C)C(=O)[C@@H]1Cc1ccc(C(F)(F)F)cc1 [PP0060] ([NMeL]I[Sar][Sar][NPrPhe(4-CF3)][Sar][hPhe(3-Cl-4-CF3)]P[Ac5c][NMeGly(cPent)][NMeD]-Morpholide; lactam N-11),0.099,B (a compound having 3 or more and less than 10 is denoted as B),B (a compound having 3 or more and less than 10 is denoted as B)

# More lines, in order of falling Kd [1], values ahead:
Kd [1] [nM],Compound,HRAS/KRAS (ratio of KD value for HRAS to KD value for KRAS) [2],NRAS/KRAS (ratio of KD value for NRAS to KD value for KRAS) [3]
3.8,CCCN1C(=O)CN(C)C(=O)CN(C)C(=O)[C@H]([C@@H](C)CC)NC(=O)[C@H](CC(C)C)N(C)C(=O)C[C@@H](C(=O)N2CCOCC2)N(C)C(=O)[C@H](C2CCCC2)N(C)C(=O)C2(CCCC2)NC(=O)[C@@H]2CCCN2C(=O)[C@H](CCc2ccc(C(F)(F)F)c(Cl)c2)NC(=O)CN(C)C(=O)[C@@H]1C1CCCC1 [PP0061] ([NMeL]I[Sar][Sar][X3][Sar][hPhe(3-Cl-4-CF3)]P[Ac5c][NMeGly(cPent)][NMeD]-Morpholide; lactam N-11),C (A compound having a KD ratio of 0.1 or more and less than 3 is denoted as C),B (a compound having 3 or more and less than 10 is denoted as B)
2.9,CC[C@H](C)[C@@H]1NC(=O)[C@H](CC(C)C)N(C)C(=O)C[C@@H](C(=O)N2CCOCC2)N(C)C(=O)[C@H](C2CCCC2)N(C)C(=O)C2(CCCC2)NC(=O)[C@@H]2CCCN2C(=O)[C@H](CCc2ccc(C(F)(F)F)c(Cl)c2)NC(=O)CN(C)C(=O)[C@H](Cc2ccc(C)cc2)N(CC(C)C)C(=O)CN(C)C(=O)CN(C)C1=O [PP0063] ([NMeL]I[Sar][Sar][X18][Sar][hPhe(3-Cl-4-CF3)]P[Ac5c][NMeGly(cPent)][NMeD]-Morpholide; lactam N-11),C (A compound having a KD ratio of 0.1 or more and less than 3 is denoted as C),C (A compound having a KD ratio of 0.1 or more and less than 3 is denoted as C)
0.42,CC[C@H](C)[C@@H]1NC(=O)[C@H](CC(C)C)N(C)C(=O)C[C@@H](C(=O)N2CCOCC2)N(C)C(=O)[C@H](C2CCCC2)N(C)C(=O)C2(CCCC2)NC(=O)[C@@H]2CCCN2C(=O)[C@H](CCc2ccc(C(F)(F)F)c(Cl)c2)NC(=O)CN(C)C(=O)[C@H](Cc2ccc(C)cc2)N(CC2CC2)C(=O)CN(C)C(=O)CN(C)C1=O [PP0064] ([NMeL]I[Sar][Sar][X21][Sar][hPhe(3-Cl-4-CF3)]P[Ac5c][NMeGly(cPent)][NMeD]-Morpholide; lactam N-11),C (A compound having a KD ratio of 0.1 or more and less than 3 is denoted as C),C (A compound having a KD ratio of 0.1 or more and less than 3 is denoted as C)
0.21,CCCCN1C(=O)CN(C)C(=O)CN(C)C(=O)[C@H]([C@@H](C)CC)NC(=O)[C@H](CC(C)C)N(C)C(=O)C[C@@H](C(=O)N2CCOCC2)N(C)C(=O)[C@H](C2CCCC2)N(C)C(=O)C2(CCCC2)NC(=O)[C@@H]2CCCN2C(=O)[C@H](CCc2ccc(C(F)(F)F)c(Cl)c2)NC(=O)CN(C)C(=O)[C@@H]1Cc1ccc(C)cc1 [PP0062] ([NMeL]I[Sar][Sar][X46][Sar][hPhe(3-Cl-4-CF3)]P[Ac5c][NMeGly(cPent)][NMeD]-Morpholide; lactam N-11),C (A compound having a KD ratio of 0.1 or more and less than 3 is denoted as C),C (A compound having a KD ratio of 0.1 or more and less than 3 is denoted as C)
0.12,CCCN1C(=O)[C@@H]2CCN2C(=O)[C@H](C)N(C)C(=O)[C@H]([C@@H](C)CC)NC(=O)[C@H](CC(C)C)N(C)C(=O)C[C@@H](C(=O)N2CCOCC2)N(C)C(=O)[C@H](C2CCCC2)N(C)C(=O)C2(CCCC2)NC(=O)[C@@H]2CCCN2C(=O)[C@H](CCc2ccc(C(F)(F)F)c(Cl)c2)NC(=O)CN(C)C(=O)[C@@H]1Cc1ccc(C(F)(F)F)cc1 [PP0053] ([NMeL]I[NMeA][Aze][NPrPhe(4-CF3)][Sar][hPhe(3-Cl-4-CF3)]P[Ac5c][NMeGly(cPent)][NMeD]-Morpholide; lactam N-11),C (A compound having a KD ratio of 0.1 or more and less than 3 is denoted as C),C (A compound having a KD ratio of 0.1 or more and less than 3 is denoted as C)
